Activity calls are given as the source filed them. The rule behind the calls is not given here.
Test system: CCRIS mutagenicity, Ames/micronucleus/aberration tests
Assay: CCRIS mutagenicity studies
[1] = Test System: AMES SALMONELLA TYPHIMURIUM, Strain/Indicator: TA1535, Metabolic Activation: NONE, Method: PREINCUBATION
[2] = Test System: AMES SALMONELLA TYPHIMURIUM, Strain/Indicator: TA1537, Metabolic Activation: NONE, Method: PREINCUBATION
[3] = Test System: AMES SALMONELLA TYPHIMURIUM, Strain/Indicator: TA98, Metabolic Activation: NONE, Method: PREINCUBATION
[4] = Test System: AMES SALMONELLA TYPHIMURIUM, Strain/Indicator: TA100, Metabolic Activation: NONE, Method: PREINCUBATION
[5] = Test System: AMES SALMONELLA TYPHIMURIUM, Strain/Indicator: TA98, Metabolic Activation: HAMSTER, LIVER, S-9, AROCLOR 1254 (10%), Method: PREINCUBATION
[6] = Test System: AMES SALMONELLA TYPHIMURIUM, Strain/Indicator: TA98, Metabolic Activation: RAT, LIVER, S-9, AROCLOR 1254 (10%), Method: PREINCUBATION
[7] = Test System: AMES SALMONELLA TYPHIMURIUM, Strain/Indicator: TA100, Metabolic Activation: HAMSTER, LIVER, S-9, AROCLOR 1254 (10%), Method: PREINCUBATION
[8] = Test System: AMES SALMONELLA TYPHIMURIUM, Strain/Indicator: TA100, Metabolic Activation: RAT, LIVER, S-9, AROCLOR 1254 (10%), Method: PREINCUBATION
[9] = Test System: AMES SALMONELLA TYPHIMURIUM, Strain/Indicator: TA1535, Metabolic Activation: HAMSTER, LIVER, S-9, AROCLOR 1254 (10%), Method: PREINCUBATION
[10] = Test System: AMES SALMONELLA TYPHIMURIUM, Strain/Indicator: TA1535, Metabolic Activation: RAT, LIVER, S-9, AROCLOR 1254 (10%), Method: PREINCUBATION
[11] = Test System: AMES SALMONELLA TYPHIMURIUM, Strain/Indicator: TA1537, Metabolic Activation: HAMSTER, LIVER, S-9, AROCLOR 1254 (10%), Method: PREINCUBATION
[12] = Test System: AMES SALMONELLA TYPHIMURIUM, Strain/Indicator: TA1537, Metabolic Activation: RAT, LIVER, S-9, AROCLOR 1254 (10%), Method: PREINCUBATION

Row | SMILES | mutagenic call [1] | mutagenic call [2] | mutagenic call [3] | mutagenic call [4] | mutagenic call [5] | mutagenic call [6] | mutagenic call [7] | mutagenic call [8] | mutagenic call [9] | mutagenic call [10] | mutagenic call [11] | mutagenic call [12] | other results
1 | C[n+]1c2ccccc2cc2ccc(N)cc21 | inactive; negative | active; positive | – | – | – | – | – | – | – | – | – | – | mutagenic call (Test System: AMES SALMONELLA TYPHIMURIUM, Strain/Indicator: TA1535, Metabolic Activation: RAT, LIVER, S-9, TETRACHLOROBIPHENYL, Method: PREINCUBATION): inactive; negative; mutagenic call (Test System: AMES SALMONELLA TYPHIMURIUM, Strain/Indicator: TA1537, Metabolic Activation: RAT, LIVER, S-9, TETRACHLOROBIPHENYL, Method: PREINCUBATION): active; positive; mutagenic call (Test System: AMES SALMONELLA TYPHIMURIUM, Strain/Indicator: TA1538, Metabolic Activation: NONE, Method: PREINCUBATION): inactive; negative; mutagenic call (Test System: AMES SALMONELLA TYPHIMURIUM, Strain/Indicator: TA1538, Metabolic Activation: RAT, LIVER, S-9, TETRACHLOROBIPHENYL, Method: PREINCUBATION): active; positive; mutagenic call (Test System: AMES SALMONELLA TYPHIMURIUM, Strain/Indicator: TA1977, Metabolic Activation: NONE, Method: PREINCUBATION): active; positive; mutagenic call (Test System: AMES SALMONELLA TYPHIMURIUM, Strain/Indicator: TA1977, Metabolic Activation: RAT, LIVER, S-9, TETRACHLOROBIPHENYL, Method: PREINCUBATION): active; positive; mutagenic call (Test System: AMES SALMONELLA TYPHIMURIUM, Strain/Indicator: TA1978, Metabolic Activation: RAT, LIVER, S-9, TETRACHLOROBIPHENYL, Method: PREINCUBATION): inactive; negative
2 | C=CC(=O)N(CC1CO1)CC1CO1 (stereo not drawn) | – | – | active; positive | active; positive | – | – | – | – | – | – | – | – | mutagenic call (Test System: AMES SALMONELLA TYPHIMURIUM, Strain/Indicator: TA98, Metabolic Activation: NONE, Method: STANDARD PLATE): active; positive; mutagenic call (Test System: AMES SALMONELLA TYPHIMURIUM, Strain/Indicator: TA98, Metabolic Activation: RAT, LIVER, S-9, AROCLOR 1254, Method: PREINCUBATION): inactive; negative; mutagenic call (Test System: AMES SALMONELLA TYPHIMURIUM, Strain/Indicator: TA98, Metabolic Activation: RAT, LIVER, S-9, AROCLOR 1254, Method: STANDARD PLATE): active; positive; mutagenic call (Test System: AMES SALMONELLA TYPHIMURIUM, Strain/Indicator: TA100, Metabolic Activation: NONE, Method: STANDARD PLATE): active; positive; mutagenic call (Test System: AMES SALMONELLA TYPHIMURIUM, Strain/Indicator: TA100, Metabolic Activation: RAT, LIVER, S-9, AROCLOR 1254, Method: PREINCUBATION): active; positive; mutagenic call (Test System: AMES SALMONELLA TYPHIMURIUM, Strain/Indicator: TA100, Metabolic Activation: RAT, LIVER, S-9, AROCLOR 1254, Method: STANDARD PLATE): active; positive
3 | CC[C@H]1CN2CCc3cc(OC)c(OC)cc3[C@@H]2C[C@@H]1C[C@H]1NCCc2cc(OC)c(OC)cc21 | inactive; negative | inactive; negative | inactive; negative | inactive; negative | inactive; negative | inactive; negative | inactive; negative | inactive; negative | inactive; negative | inactive; negative | inactive; negative | inactive; negative | –
4 | BrCC(Br)C1CCC(Br)C(Br)C1 (stereo not drawn) | inactive; negative | inactive; negative | inactive; negative | inactive; negative | inactive; negative | inactive; negative | inactive; negative | inactive; negative | inactive; negative | inactive; negative | inactive; negative | inactive; negative | mutagenic call (End Point: IN VITRO CHROMOSOMAL ABERRATIONS, Test System: CHINESE HAMSTER LUNG CELLS (CHL), Metabolic Activation: NONE): inactive; negative; mutagenic call (End Point: IN VITRO CHROMOSOMAL ABERRATIONS, Test System: CHINESE HAMSTER LUNG CELLS (CHL), Metabolic Activation: RAT, LIVER, S-9, KC-400): active; positive (structural changes); mutagenic call (End Point: IN VITRO CHROMOSOMAL ABERRATIONS, Test System: CHINESE HAMSTER OVARY CELLS (CHO), Metabolic Activation: NONE): inactive; negative; mutagenic call (End Point: IN VITRO CHROMOSOMAL ABERRATIONS, Test System: CHINESE HAMSTER OVARY CELLS (CHO), Metabolic Activation: RAT, LIVER, S-9, AROCLOR 1254): inactive; negative; mutagenic call (End Point: IN VITRO CHROMOSOMAL ABERRATIONS, Test System: CHO CELLS, Metabolic Activation: NONE): inactive; negative; mutagenic call (End Point: IN VITRO CHROMOSOMAL ABERRATIONS, Test System: CHO CELLS, Metabolic Activation: RAT, LIVER, S-9, AROCLOR 1254): inactive; negative; mutagenic call (Test System: MOUSE LYMPHOMA, Strain/Indicator: L5178Y (TK+/TK-), Metabolic Activation: NONE, Method: SUSPENSION/PLATE): active; positive

Source: PubChem BioAssay AID1259407 (Chemical Carcinogenesis Research Information System (CCRIS), 2018)
